Experimental data from US20240299385A1 (ReWind Therapeutics NV, priority 2021, published 2024).

molecular target: T1, human GPR17 receptor (Homo sapiens, UniProt Q13304); experiment: Calcium mobilization functional assay (Fluo-8, FLIPR TETRA) in HEK-293 hGPR17 (Gα-q assay); assay type: cell-based; conditions: antagonism of MDL29,951 (~EC80) induced Ca2+ signal; cell line (HEK-293 hGPR17 or HEK-293 Suchi5 hGPR17) not given
T1 construct: host or cells: HEK-293
Method in brief: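 Fluo-8-loaded HEK-293 hGPR17 cells (60 min dye loading, room temperature) were preincubated with compound for twenty minutes, then challenged with agonist MDL29,951 at ~EC80, 500 nM. Intracellular calcium release via Gα-q was recorded as FLIPR fluorescence for a further 2 minutes; compounds tested in duplicate.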

T1 sequence (Q13304 whole entry): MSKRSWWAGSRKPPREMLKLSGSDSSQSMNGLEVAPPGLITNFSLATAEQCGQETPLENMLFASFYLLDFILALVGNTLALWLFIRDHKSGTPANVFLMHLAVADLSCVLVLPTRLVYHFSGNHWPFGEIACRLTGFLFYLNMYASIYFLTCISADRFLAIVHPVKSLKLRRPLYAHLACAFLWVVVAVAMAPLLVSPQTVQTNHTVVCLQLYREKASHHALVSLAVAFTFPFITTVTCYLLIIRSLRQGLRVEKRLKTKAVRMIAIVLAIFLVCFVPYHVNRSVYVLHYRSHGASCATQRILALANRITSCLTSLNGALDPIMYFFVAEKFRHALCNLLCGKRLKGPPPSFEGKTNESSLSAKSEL

| IC50 | Structure (SMILES) |
| --- | --- |
| 5 to 50 µM | N#CCc1cnc(NS(=O)(=O)c2c[nH]c(-c3ccccn3)c2)c(F)c1 [Cpd 201, N-[5-(cyanomethyl)-3-fluoro-2-pyridyl]-5-(2-pyridyl)-1H-pyrrole-3-sulfonamide] |
| < 0.5 µM | O=S(=O)(Nc1cc(F)c(Cl)cc1F)c1c[nH]c(-c2ccccn2)c1 [Cpd 202, N-(4-chloro-2,5-difluoro-phenyl)-5-(2-pyridyl)-1H-pyrrole-3-sulfonamide] |
| 0.5 to 5 µM | CCOC(=O)c1ccc(NS(=O)(=O)c2c[nH]c(-c3ccccn3)c2)c(F)c1 [Cpd 203] |
| < 0.5 µM | O=S(=O)(Nc1cc(F)c(C(F)(F)F)cc1F)c1c[nH]c(-c2ncccc2Cl)c1 [Cpd 204, 5-(3-chloro-2-pyridyl)-N-[2,5-difluoro-4-(trifluoromethyl)phenyl]-1H-pyrrole-3-sulfonamide] |
| < 0.5 µM | O=S(=O)(Nc1cc(F)c(OC(F)F)cc1F)c1c[nH]c(-c2ccccn2)c1 [Cpd 205, N-[4-(difluoromethoxy)-2,5-difluoro-phenyl]-5-(2-pyridyl)-1H-pyrrole-3-sulfonamide] |
| < 0.5 µM | N#Cc1ccc(NS(=O)(=O)c2c[nH]cc2Cc2cccc(Cl)c2)c(F)c1 [Cpd 206, 4-[(3-chlorophenyl)methyl]-N-(4-cyano-2-fluoro-phenyl)-1H-pyrrole-3-sulfonamide] |
| 5 to 50 µM | N#Cc1ccc(NS(=O)(=O)c2c[nH]cc2C(O)c2ccccc2)c(F)c1 (stereo not drawn) [Cpd 207, N-(4-cyano-2-fluoro-phenyl)-4-[hydroxy(phenyl)methyl]-1H-pyrrole-3-sulfonamide] |
| 0.5 to 5 µM | N#Cc1ccc(NS(=O)(=O)c2c[nH]cc2Cc2ccc(Cl)cc2)c(F)c1 [Cpd 208, 4-[(4-chlorophenyl)methyl]-N-(4-cyano-2-fluoro-phenyl)-1H-pyrrole-3-sulfonamide] |
| 5 to 50 µM | COc1ccc(Cc2c[nH]cc2S(=O)(=O)Nc2ccc(C#N)cc2F)cc1 [Cpd 209, N-(4-cyano-2-fluoro-phenyl)-4-[(4-methoxyphenyl)methyl]-1H-pyrrole-3-sulfonamide] |
| < 0.5 µM | COc1cccc(Cc2c[nH]cc2S(=O)(=O)Nc2ccc(C#N)cc2F)c1 [Cpd 210, N-(4-cyano-2-fluoro-phenyl)-4-[(3-methoxyphenyl)methyl]-1H-pyrrole-3-sulfonamide] |
| 0.5 to 5 µM | COc1ccccc1Cc1c[nH]cc1S(=O)(=O)Nc1ccc(C#N)cc1F [Cpd 211, N-(4-cyano-2-fluoro-phenyl)-4-[(2-methoxyphenyl)methyl]-1H-pyrrole-3-sulfonamide] |
| 0.5 to 5 µM | O=S(=O)(Nc1cc(F)c(C(F)(F)F)cc1F)c1c[nH]c(-c2cc(Cl)ccn2)c1 [Cpd 214, 5-(4-chloro-2-pyridyl)-N-[2,5-difluoro-4-(trifluoromethyl)phenyl]-1H-pyrrole-3-sulfonamide] |
| < 0.5 µM | O=S(=O)(Nc1cc(F)c(C(F)(F)F)cc1F)c1c[nH]c(-c2cccc(Cl)n2)c1 [Cpd 215, 5-(6-chloro-2-pyridyl)-N-[2,5-difluoro-4-(trifluoromethyl)phenyl]-1H-pyrrole-3-sulfonamide] |
| 0.5 to 5 µM | C#Cc1cnc(NS(=O)(=O)c2c[nH]c(-c3ccccc3)c2)c(F)c1 [Cpd 216, N-(5-ethynyl-3-fluoro-2-pyridyl)-5-phenyl-1H-pyrrole-3-sulfonamide] |
| 5 to 50 µM | N#Cc1ccc(NS(=O)(=O)c2c[nH]cc2-c2ccc(F)cc2)c(F)c1 [Cpd 217, N-(4-cyano-2-fluoro-phenyl)-4-(4-fluorophenyl)-1H-pyrrole-3-sulfonamide] |
| 0.5 to 5 µM | N#Cc1ccc(NS(=O)(=O)c2c[nH]cc2-c2ccc(Cl)cc2)c(F)c1 [Cpd 218, 4-(4-chlorophenyl)-N-(4-cyano-2-fluoro-phenyl)-1H-pyrrole-3-sulfonamide] |
| 0.5 to 5 µM | Cc1ccc(-c2c[nH]cc2S(=O)(=O)Nc2ccc(C#N)cc2F)cc1 [Cpd 219, N-(4-cyano-2-fluoro-phenyl)-4-(p-tolyl)-1H-pyrrole-3-sulfonamide] |
| 0.5 to 5 µM | COc1cccc(-c2c[nH]cc2S(=O)(=O)Nc2ccc(C#N)cc2F)c1 [Cpd 220, N-(4-cyano-2-fluoro-phenyl)-4-(3-methoxyphenyl)-1H-pyrrole-3-sulfonamide] |
| 0.5 to 5 µM | Cc1cccc(-c2c[nH]cc2S(=O)(=O)Nc2ccc(C#N)cc2F)c1 [Cpd 221, N-(4-cyano-2-fluoro-phenyl)-4-(m-tolyl)-1H-pyrrole-3-sulfonamide] |
| 5 to 50 µM | N#Cc1ccc(NS(=O)(=O)c2c[nH]cc2-c2ccccc2Cl)c(F)c1 [Cpd 222, 4-(2-chlorophenyl)-N-(4-cyano-2-fluoro-phenyl)-1H-pyrrole-3-sulfonamide] |
| 5 to 50 µM | COc1ccccc1-c1c[nH]cc1S(=O)(=O)Nc1ccc(C#N)cc1F [Cpd 223, N-(4-cyano-2-fluoro-phenyl)-4-(2-methoxyphenyl)-1H-pyrrole-3-sulfonamide] |

| IC50 | Structure (SMILES) |
| --- | --- |
| < 0.5 µM | COc1nccc(F)c1-c1cc(S(=O)(=O)Nc2cc(F)c(C(F)(F)F)cc2F)c[nH]1 [Cpd 224, N-[2,5-difluoro-4-(trifluoromethyl)phenyl]-5-(4-fluoro-2-methoxy-3-pyridyl)-1H-pyrrole-3-sulfonamide] |
| 0.5 to 5 µM | COc1nccc(F)c1-c1cc(S(=O)(=O)Nc2ccc(Cl)cc2F)c[nH]1 [Cpd 227, N-(4-chloro-2-fluoro-phenyl)-5-(4-fluoro-2-methoxy-3-pyridyl)-1H-pyrrole-3-sulfonamide] |
| < 0.5 µM | N#Cc1ccc(NS(=O)(=O)c2c[nH]cc2-c2cccc(Cl)c2)c(F)c1 [Cpd 228, 4-(3-chlorophenyl)-N-(4-cyano-2-fluoro-phenyl)-1H-pyrrole-3-sulfonamide] |
| 0.5 to 5 µM | N#Cc1ccc(NS(=O)(=O)c2c[nH]cc2-c2ccccn2)c(F)c1 [Cpd 229, N-(4-cyano-2-fluoro-phenyl)-4-(2-pyridyl)-1H-pyrrole-3-sulfonamide] |
| < 0.5 µM | N#Cc1ccc(NS(=O)(=O)c2c[nH]cc2-c2cccc(F)c2)c(F)c1 [Cpd 230, N-(4-cyano-2-fluoro-phenyl)-4-(3-fluorophenyl)-1H-pyrrole-3-sulfonamide] |
| 0.5 to 5 µM | N#Cc1ccc(NS(=O)(=O)c2c[nH]cc2-c2ccccc2F)c(F)c1 [Cpd 231, N-(4-cyano-2-fluoro-phenyl)-4-(2-fluorophenyl)-1H-pyrrole-3-sulfonamide] |
| < 0.5 µM | O=S(=O)(Nc1cc(F)c(OC(F)F)cc1F)c1c[nH]c(-c2ccccc2)c1 [Cpd 232, N-[4-(difluoromethoxy)-2,5-difluoro-phenyl]-5-phenyl-1H-pyrrole-3-sulfonamide] |
| 0.5 to 5 µM | O=S(=O)(Nc1ccc(OC(F)F)nc1)c1c[nH]c(-c2ccccc2)c1 [Cpd 233, N-[6-(difluoromethoxy)-3-pyridyl]-5-phenyl-1H-pyrrole-3-sulfonamide] |
| < 0.5 µM | O=S(=O)(Nc1cc(F)c(C(F)(F)F)cc1F)c1c[nH]c(-c2cc(CO)ccc2F)c1 [Cpd 234, N-[2,5-difluoro-4-(trifluoromethyl)phenyl]-5-[2-fluoro-5-(hydroxymethyl)phenyl]-1H-pyrrole-3-sulfonamide] |
| 0.5 to 5 µM | COCc1ccc(F)c(-c2cc(S(=O)(=O)Nc3cc(F)c(C(F)(F)F)cc3F)c[nH]2)c1 [Cpd 235, N-[2,5-difluoro-4-(trifluoromethyl)phenyl]-5-[2-fluoro-5-(methoxymethyl)phenyl]-1H-pyrrole-3-sulfonamide] |
| 5 to 50 µM | N#Cc1ccc(NS(=O)(=O)c2c[nH]c(C3CC3)c2)c(F)c1 [Cpd 236, N-(4-cyano-2-fluoro-phenyl)-5-cyclopropyl-1H-pyrrole-3-sulfonamide] |
| 0.5 to 5 µM | CCOc1cc(F)c(NS(=O)(=O)c2c[nH]c(-c3ccccn3)c2)cc1F [Cpd 237, N-(4-ethoxy-2,5-difluoro-phenyl)-5-(2-pyridyl)-1H-pyrrole-3-sulfonamide] |
| < 0.5 µM | N#Cc1ccc(NS(=O)(=O)c2c[nH]cc2C2=CCCC2)c(F)c1 [Cpd 238, N-(4-cyano-2-fluorophenyl)-4-(cyclopent-1-en-1-yl)-1H-pyrrole-3-sulfonamide] |
| 0.5 to 5 µM | O=S(=O)(Nc1ccc(OC(F)F)cc1F)c1c[nH]c(-c2ccccn2)c1 [Cpd 239, N-[4-(difluoromethoxy)-2-fluoro-phenyl]-5-(2-pyridyl)-1H-pyrrole-3-sulfonamide] |
| 0.5 to 5 µM | CCOc1ccccc1-c1cc(S(=O)(=O)Nc2ccc(C#N)cc2F)c[nH]1 [Cpd 240, N-(4-cyano-2-fluoro-phenyl)-5-(2-ethoxyphenyl)-1H-pyrrole-3-sulfonamide] |
| 5 to 50 µM | CC(C)Oc1cc(F)c(NS(=O)(=O)c2c[nH]c(-c3ccccn3)c2)cc1F [Cpd 241, N-(2,5-difluoro-4-isopropoxy-phenyl)-5-(2-pyridyl)-1H-pyrrole-3-sulfonamide] |
| 5 to 50 µM | N#Cc1ccc(NS(=O)(=O)c2c[nH]cc2C2CCCC2)c(F)c1 [Cpd 242, N-(4-cyano-2-fluoro-phenyl)-4-cyclopentyl-1H-pyrrole-3-sulfonamide] |
| 5 to 50 µM | O=S(=O)(Nc1cc(F)c(C(F)(F)F)cc1F)c1c[nH]c(-c2nccn2CC(F)(F)F)c1 [Cpd 243, N-[2,5-difluoro-4-(trifluoromethyl)phenyl]-5-[1-(2,2,2-trifluoroethyl)imidazol-2-yl]-1H-pyrrole-3-sulfonamide] |
| < 0.5 µM | N#Cc1ccc(NS(=O)(=O)c2c[nH]c(-c3ccccc3OC(F)F)c2)c(F)c1 [Cpd 244, N-(4-cyano-2-fluoro-phenyl)-5-[2-(difluoromethoxy)phenyl]-1H-pyrrole-3-sulfonamide] |
| 5 to 50 µM | O=C1CCCN1c1cc(S(=O)(=O)Nc2cc(F)c(C(F)(F)F)cc2F)c[nH]1 [Cpd 245, N-[2,5-difluoro-4-(trifluoromethyl)phenyl]-5-(2-oxopyrrolidin-1-yl)-1H-pyrrole-3-sulfonamide] |
| < 0.5 µM | O=S(=O)(Nc1cc(F)c(OC(F)(F)F)cc1F)c1c[nH]c(-c2ccccn2)c1 [Cpd 246, N-[2,5-difluoro-4-(trifluoromethoxy)phenyl]-5-(2-pyridyl)-1H-pyrrole-3-sulfonamide] |
